Bridge positions count the residues as written; N and C are the ends. Ends that are not written are not given here. mini‑PEG = diethylene glycol
Tested on: mouse hearts subjected to ischemia/reperfusion (I/R) injury
Test: Langendorff perfusion ischemia/reperfusion (I/R) injury, infarct size analysis (TTC staining)
Set-up: % MI Reduction: concentration or dose not given beside the values
Settings: for % MI Reduction: vs. I/R Control; for % Improvement in MI Reduction: modified peptide vs. closest prior art peptide (V1-9aa, V2-10aa or V3-11aa); for Infarct size: fragments of prior art peptides, Control I/R 37.6±1.3%, Mean±SEM, p<0.001
Experimental: Male C57BL/6J mice (8-12 weeks old) were obtained from the Charles River Laboratories (Wilmington, Mass., USA). After anesthetized with intraperitoneal pentobarbitone (60 mg/kg), mouse hearts were harvested immediately and the aortas were cannulated with a 20-gauge stainless steel blunt needle and transferred to the Langendorff rig and perfused retrograde instantly with modified Krebs-Henseleit buffer (KHB) for 30 minutes as previously described. See Bouhidel et al. Front Biosci (Landmark Ed) 2014; 19:566-570, and Zhang et al., J Mol Cell Cardiol. 2010; 48:1060-1070. Then hearts were pre-perfused for 45 minutes with or without netrin-1 (100 ng/ml), or different peptide fragments at the same molar concentration 1.47 nmol/L as netrin-1, prior to being subjected to ischemia/reperfusion (I/R) injury (a 20-minute global ischemia followed by a 60-minute reperfusion with or without netrin-1 or different peptide fragments). Hearts were then harvested for analyses of infarct size. For post-conditioning treatment with peptide fragments, hearts underwent 40 minutes of KHB perfusion, 20 minutes of global ischemia, and a 60-minute reperfusion with different peptide fragments.
At the end of I/R protocol, hearts were sliced perpendicular to the long-axis of the heart at 1 mm intervals and stained with 1% triphenyl tetrazolium chloride (TTC) in PBS for 10 minutes at room temperature. After washing with PBS once, sections of the hearts will be fixed in 10% formalin overnight. The heart slices were then digitally photographed for planimetry using NIH Image 1.62. Infarct size is expressed as an infarct-to-risk zone ratio (the risk zone is the whole ventricular volume in this global ischemic model).
Densitometric data of western blotting was obtained by software Image J. Grouped data was analyzed by software Gradpad Prism δ. All values are expressed as Mean±SEM. Comparisons of more than two groups were performed using a one way ANOVA analysis with Newman-Keuls test as a post-hoc test. Statistical significance is set as p<0.05.

[1] = Table 2, modified netrin-1 peptides, I/R Control 43.1625, p < 0.001 vs. Control
[2] = Table 2, modified netrin-1 peptides
[3] = Table 1, prior art peptides, I/R Control 37.6

Substance	Infarct Size Mean (%) [1] [%]	% MI Reduction [2] [%]	% Improvement in MI Reduction	Infarct Size Mean (%) [3] [%]	% MI Reduction (Table 1, prior art peptides) [%]	Infarct size [%]
TDCRHNTAG [V1T]	15.4650	64	(64 − 55)/55 = 16%	–	–	–
(mini-PEG)-CPCKDGVTIGIT ({mini‑PEG}-CPCKDGVTIGIT; cysteine pairing not given here) [V3P]	12.9700	70	–	–	–	–
SDCRHNTAG (Peptide based on human Netrin-1 sequence) [V1S]	12.7750	71	(71 − 55)/55 = 29%	–	–	–
CLNCRHNTAG (Peptide based on human Netrin-1 sequence) [V2-10aa, reference compound]	–	–	–	18.6	51	18.6±1.7
CDCRHNTAG (disulfide 1-3) [V1C]	11.2700	74	(74 − 55)/55 = 35%	–	–	–
(mini-PEG)-CDCRHNTAG ({mini‑PEG}-CDCRHNTAG; cysteine pairing not given here) [V1P]	10.0100	77	(77 − 55)/55 = 40%	–	–	–
(mini-PEG)-CLNCRHNTAG ({mini‑PEG}-CLNCRHNTAG; cysteine pairing not given here) [V2P]	18.3315	58	(58 − 51)/51 = 14%	–	–	–
CDCRHNTAG (not fully specified (bridges); cysteine pairing not given here) [V1-9aa, reference compound]	–	–	–	16.8	55	16.8±2.2
CPCKDGVTGIT (Peptide based on human Netrin-1 sequence) [V3-11aa, reference compound]	–	–	–	16.7	56	16.7±3.0

Source: patent publication US20210371463A1, “Modified Netrin-1 Peptides and Compositions for Cardioprotection” (The Regents of the University of California, priority 2018, published 2021)
